Experiment [1] relates to rat striatal synaptosomes. The experiment can be described thus: 3H-dopamine release from rat striatal synaptosomes. Format: cell-based. The settings on record: fraction of release relative to total releasable dopamine. Here is the method:
Brains from Sprague-Dawley or Wistar rats (200-400 g) were dissected. Tissue from three rat brains yields enough material for one 96-well plate. Striata were dissected on an ice-chilled platform and placed in 12 ml ice-cold dissection buffer. The tissue was hereafter homogenized for 5-10 sec using a motor driven Teflon pestle in a glass homogenizing vessel. The homogenate was centrifuged at 1000×g for 10 min at 4° C. The resulting supernatant was then re-centrifuged at 12,000×g for 20 min at 4° C. The final crude P2 synatosomal fraction was re-suspended in oxygenated (equilibrated with an atmosphere of 96% O2: 4% CO2 for at least 30 min) Krebs bicarbonate buffer (0.5 ml/100 mg wet tissue weight) containing 100 nM ^3H-dopamine (3.9 μl/100 mg wet tissue weight) and incubated at 37° C. for 10 min. Pargyline was added to the buffer to prevent degradation of ^3H-dopamine.
The ^3H-dopamine loaded synaptosomes were centrifuged at 1000×g for 5 min at room temperature. […]
Following the collection of stimulated release, 75 μl Solvable™ was added to each well and allowed to incubate for at least 45 min to extract remaining ^3H-DA from the sample. […] Radioactivity from each collection was determined by conventional liquid scintillation counting using a Packard Topcount™ counter. […]

The target of experiment [2] is T1, human α3β4 nicotinic receptors (Homo sapiens, UniProt P30926+P32297).
T1 construct: expressed in transfected cells
The experiment can be described thus: FLIPR fluorescence-based calcium assay, α3β4. Format: cell-based. The settings on record: FLIPR calcium response relative to nicotine. Here is the method:
The level of agonist activity of 9-methyl-3-pyridin-3-yl-3,9-diaza-bicyclo[3.3.1]nonane was tested in functional fluorescence-based calcium assays using TE671 cells and HEK293 cells stably expressing human α6/α3β2β3^V273S, α3β4 and α4β2 nicotinic receptors.
Cells were plated on poly-D-lysine coated 384-well microtiter plates and were allowed to proliferate for 24 h. Dye loading was performed by incubating cells with 2 μM fluo-4/AM for 1.5 h at room temperature. Dye not taken up by cells was removed by aspiration followed by three washing cycles with 25 μl of NMDG Ringer buffer (in mM: 140 NMDG, 5 KCl, 1 MgCl2, 10 CaCl2, 10 HEPES, pH 7.4) after which the cells were kept in 25 μl of the same buffer. The microtiter plates were placed in a Fluoremetric Imaging Plate Reader (FLIPR) and subjected to test compound at various concentrations. Background subtracted compound-mediated calcium responses were normalized to 100 μM nicotine control responses and pEC50 as well as relative maximal efficacy values were determined.

T1 sequence (P32297 32-505): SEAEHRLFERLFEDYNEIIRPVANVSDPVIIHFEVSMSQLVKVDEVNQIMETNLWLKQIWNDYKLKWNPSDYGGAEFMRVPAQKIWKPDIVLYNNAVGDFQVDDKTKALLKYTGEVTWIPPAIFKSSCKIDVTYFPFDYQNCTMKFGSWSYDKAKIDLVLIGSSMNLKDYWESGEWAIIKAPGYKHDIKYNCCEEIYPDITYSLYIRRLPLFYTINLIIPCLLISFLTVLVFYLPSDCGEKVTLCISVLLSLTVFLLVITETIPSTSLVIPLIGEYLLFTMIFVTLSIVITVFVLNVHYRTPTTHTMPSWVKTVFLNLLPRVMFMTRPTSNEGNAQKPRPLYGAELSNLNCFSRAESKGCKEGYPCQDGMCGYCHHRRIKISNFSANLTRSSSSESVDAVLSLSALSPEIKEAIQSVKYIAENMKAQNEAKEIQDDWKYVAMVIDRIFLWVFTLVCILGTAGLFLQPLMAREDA
T1 sequence (P30926 22-498): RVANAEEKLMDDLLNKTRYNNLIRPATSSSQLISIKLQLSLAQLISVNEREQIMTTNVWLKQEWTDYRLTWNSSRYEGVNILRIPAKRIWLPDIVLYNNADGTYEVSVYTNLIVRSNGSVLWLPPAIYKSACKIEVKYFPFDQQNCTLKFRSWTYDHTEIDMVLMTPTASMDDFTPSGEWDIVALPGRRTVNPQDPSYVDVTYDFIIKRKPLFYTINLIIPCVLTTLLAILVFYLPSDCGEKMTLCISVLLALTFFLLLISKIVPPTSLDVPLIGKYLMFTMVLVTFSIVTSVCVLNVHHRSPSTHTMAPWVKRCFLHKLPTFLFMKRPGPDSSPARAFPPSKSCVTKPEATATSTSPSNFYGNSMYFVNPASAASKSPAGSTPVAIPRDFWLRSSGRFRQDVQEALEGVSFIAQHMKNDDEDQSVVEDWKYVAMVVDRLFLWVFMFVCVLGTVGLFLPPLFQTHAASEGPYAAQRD

Regarding `CN1C2CCCC1CN(c1cccnc1)C2` [9-methyl-3-pyridin-3-yl-3,9-diaza-bicyclo[3.3.1]nonane], the 3H-dopamine release entry in experiment [1] was “concentration-dependently stimulates”. In addition, in experiment [2], the efficacy entry was “practically no efficacy”.

Values taken from patent US20180311238A1, “Selective Agonist Of a6 Containing nAChRs” (Saniona A/S, priority 2017, published 2018).
